Test results as given in PubChem BioAssay (NCI).
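Protocol summary: plate cells (96-well), add compound at 5 concentrations, incubate 48 h, interpolate endpoints linearly. Definition used: TGI = concentration required for complete inhibition of growth.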

Legend:
Assay in all cases: inhibition of tumour cell growth, NCI panel, 48 h
SK-OV-3 ovarian = system: SK-OV-3 ovarian
786-0 renal = system: 786-0 renal
OVCAR-4 ovarian = system: OVCAR-4 ovarian
M19-MEL melanoma = system: M19-MEL melanoma
OVCAR-5 ovarian = system: OVCAR-5 ovarian
HCT-116 colon = system: HCT-116 colon
DLD-1 colon = system: DLD-1 colon
MOLT-4 leukemia = system: MOLT-4 leukemia
UO-31 renal = system: UO-31 renal
SK-MEL-28 melanoma = system: SK-MEL-28 melanoma
HCC-2998 colon = system: HCC-2998 colon
RPMI-8226 leukemia = system: RPMI-8226 leukemia
SK-MEL-2 melanoma = system: SK-MEL-2 melanoma
HOP-62 NSCLC = system: HOP-62 NSCLC
COLO 205 colon = system: COLO 205 colon
SW-620 colon = system: SW-620 colon
M14 melanoma = system: M14 melanoma
HT29 colon = system: HT29 colon
CAKI-1 renal = system: CAKI-1 renal
SK-MEL-5 melanoma = system: SK-MEL-5 melanoma
NCI-H226 lung = system: NCI-H226 lung
U251 CNS = system: U251 CNS
SNB-19 CNS = system: SNB-19 CNS
KM20L2 colon = system: KM20L2 colon
ACHN renal = system: ACHN renal
HOP-92 NSCLC = system: HOP-92 NSCLC
UACC-62 melanoma = system: UACC-62 melanoma
IGROV1 ovarian = system: IGROV1 ovarian
MALME-3M melanoma = system: MALME-3M melanoma
A549 NSCLC = system: A549 NSCLC
NCI-H460 lung = system: NCI-H460 lung
UACC-257 melanoma = system: UACC-257 melanoma
HOP-18 NSCLC = system: HOP-18 NSCLC
SNB-78 CNS = system: SNB-78 CNS
SNB-75 CNS = system: SNB-75 CNS
LXFL 529 NSCLC = system: LXFL 529 NSCLC
SF-295 CNS = system: SF-295 CNS
SF-539 CNS = system: SF-539 CNS
OVCAR-3 ovarian = system: OVCAR-3 ovarian
HL-60(TB) leukemia = system: HL-60(TB) leukemia
RXF 393 renal = system: RXF 393 renal
OVCAR-8 ovarian = system: OVCAR-8 ovarian
DMS 114 small cell lung = system: DMS 114 small cell lung
DMS 273 small cell lung = system: DMS 273 small cell lung
A498 renal = system: A498 renal
SF-268 CNS = system: SF-268 CNS
KM12 colon = system: KM12 colon
NCI-H522 lung = system: NCI-H522 lung
CCRF-CEM leukemia = system: CCRF-CEM leukemia
HCT-15 colon = system: HCT-15 colon
EKVX NSCLC = system: EKVX NSCLC
SR leukemia = system: SR leukemia
NCI-H23 lung = system: NCI-H23 lung
SN12C renal = system: SN12C renal
LOX IMVI melanoma = system: LOX IMVI melanoma
TK-10 renal = system: TK-10 renal
K-562 leukemia = system: K-562 leukemia

Measured: TGI

CC(NC1CCCC[C@H]1O)c1ccccc1 (stereo partly drawn)
> 100 µM: SK-OV-3 ovarian | 786-0 renal | OVCAR-4 ovarian | M19-MEL melanoma | OVCAR-5 ovarian | HCT-116 colon | DLD-1 colon | MOLT-4 leukemia | UO-31 renal | SK-MEL-28 melanoma | HCC-2998 colon | RPMI-8226 leukemia | SK-MEL-2 melanoma | HOP-62 NSCLC | COLO 205 colon | SW-620 colon | M14 melanoma | HT29 colon | CAKI-1 renal | SK-MEL-5 melanoma | NCI-H226 lung | U251 CNS | SNB-19 CNS | KM20L2 colon | ACHN renal | HOP-92 NSCLC | UACC-62 melanoma | IGROV1 ovarian | MALME-3M melanoma | A549 NSCLC | NCI-H460 lung | UACC-257 melanoma | HOP-18 NSCLC | SNB-78 CNS | SNB-75 CNS | LXFL 529 NSCLC

COc1cc(OC)c2c(=O)c3c([N+](=O)[O-])cccc3n(C)c2c1
> 100 µM: SF-295 CNS | SF-539 CNS | SK-OV-3 ovarian | OVCAR-3 ovarian | 786-0 renal | OVCAR-4 ovarian | HL-60(TB) leukemia | RXF 393 renal | M19-MEL melanoma | OVCAR-5 ovarian | OVCAR-8 ovarian | HCT-116 colon | DMS 114 small cell lung | DMS 273 small cell lung | A498 renal | DLD-1 colon | SF-268 CNS | MOLT-4 leukemia | KM12 colon | UO-31 renal | SK-MEL-28 melanoma | HCC-2998 colon | RPMI-8226 leukemia | NCI-H522 lung | CCRF-CEM leukemia | HCT-15 colon | SK-MEL-2 melanoma | HOP-62 NSCLC | EKVX NSCLC | COLO 205 colon | SR leukemia | NCI-H23 lung | SW-620 colon | M14 melanoma | HT29 colon | CAKI-1 renal | SK-MEL-5 melanoma | NCI-H226 lung | U251 CNS | SNB-19 CNS | SN12C renal | KM20L2 colon | ACHN renal | LOX IMVI melanoma | HOP-92 NSCLC | UACC-62 melanoma | IGROV1 ovarian | MALME-3M melanoma | A549 NSCLC | NCI-H460 lung | TK-10 renal | UACC-257 melanoma | K-562 leukemia | HOP-18 NSCLC | SNB-78 CNS | SNB-75 CNS | LXFL 529 NSCLC
